Columns and labels:
[1] = molecular target: Hsp82 (Saccharomyces cerevisiae, UniProt P02829); assay: Hsp82/ATPase test (PK/LDH coupled spectrophotometric method; malachite green method also described); type: biochemical; settings: 1 μM Hsp82, 250 μM ATP, 37° C., absorbance at 340 nm
Protocol: The biochemical activity of the compounds can in particular be evaluated by means of the “Hsp82/ATPase” test described below:
The inorganic phosphate released during the hydrolysis of ATP by the ATPase activity of Hsp82 is quantified by the malachite green method. In the presence of this reagent, formation of the inorganic phosphate-molybdate-malachite green complex, which absorbs at a wavelength of 620 nm, occurs.
The products to be evaluated are incubated in a reaction volume of 30 μl, in the presence of 1 μM Hsp82 and of 250 μM of substrate (ATP) in a buffer composed of 50 mM Hepes-NaOH (pH 7.5), 1 mM DTT, 5 mM MgCl2 and 50 mM KCl at 37° C. for 60 min. In parallel, an inorganic phosphate range of between 1 and 40 μM is made up in the same buffer. […] The inorganic phosphate concentration of each sample is then calculated from the standard curve. The ATPase activity of Hsp82 is expressed as concentration of inorganic phosphate produced in 60 minutes. The effect of the various products tested is expressed as percentage inhibition of the ATPase activity.
The formation of ADP due to the ATPase activity of Hsp82 was used to develop another method for evaluating the enzyme activity of this enzyme by application of an enzymatic coupling system involving pyruvate kinase (PK) and lactate dehydrogenase (LDH). In this kinetic-type spectrophotometric method, PK catalyses the formation of ATP and of pyruvate from phosphoenol pyruvate (PEP) and the ADP produced by Hsp82. The pyruvate formed, which is a substrate for LDH, is subsequently converted to lactate in the presence of NADH. In this case, the decrease in the NADH concentration, measured through the decrease in absorbance at the wavelength of 340 nm, is proportional to the concentration of ADP produced by Hsp82.
The products tested are incubated in a reaction volume of 100 μl of buffer composed of 100 mM Hepes-NaOH (pH 7.5), 5 mM MgCl2, 1 mM DTT, 150 mM KCl, 0.3 mM NADH, 2.5 mM PEP and 250 μM ATP. This mixture is preincubated at 37° C. for 30 minutes before the addition of 3.77 units of LDH and 3.77 units of PK. The reaction is initiated by addition of the product to be evaluated, in varying concentrations, and of Hsp82, at the concentration of 1 μM. The enzymatic activity of Hsp82 is then measured continuously, in a microplate reader, at 37° C., at the wavelength of 340 nm. The initial rate of the reaction is obtained by measuring the slope of the tangent to the origin of the curve recorded. The enzymatic activity is expressed in μM of ADP formed per minute. The effect of the various products tested is expressed as 50% inhibitory concentration (1050) with respect to the ATPase activity, according to the codification below: […]

[2] = tested on: Her2 expression in SKBr3 cells; assay: phenotypic SKBr3/HER2 cell test (Her2 expression at the cell surface, flow cytometry); type: cell-based; settings: Homo sapiens, SK-BR-3, incubation for 24 h, anti-Her2 antibody coupled to PE, FACS
Protocol: The cellular activity of the compounds can in particular be evaluated by means of the phenotypic “SKBr3/HER2” cell test described below:
The SKBr3 […] adenocarcinoma cells, overexpressing the Her2 tyrosine kinase receptor, originate from the ATCC (HTB-30) and are cultured in McCoy's 5A medium supplemented with 10% FBS and 1% L-glutamine.
The cells are seeded in 12-well plates at a proportion of 125 000 cells per well in 1 ml of complete medium. The following day, the products are added at varying concentrations. After incubation for 24 h, the cells are trypsinized, washed with PBS and incubated with 100 ng of anti-Her2 antibody coupled to PE (phycoerythrin) (BD 340552) for 30 minutes at 4° C. in the dark. The fluorescence due to the expression of the Her2 receptor at the surface of the cells is then read using a FACS Calibur flow cytometer (Becton-Dickinson). The percentage inhibition of Her2 expression as a function of the concentrations of product tested is fitted by the nonlinear regression technique (XLfit, equation 205) in order to measure the IC50 for each product.

Sequence of Hsp82 (P02829 whole entry): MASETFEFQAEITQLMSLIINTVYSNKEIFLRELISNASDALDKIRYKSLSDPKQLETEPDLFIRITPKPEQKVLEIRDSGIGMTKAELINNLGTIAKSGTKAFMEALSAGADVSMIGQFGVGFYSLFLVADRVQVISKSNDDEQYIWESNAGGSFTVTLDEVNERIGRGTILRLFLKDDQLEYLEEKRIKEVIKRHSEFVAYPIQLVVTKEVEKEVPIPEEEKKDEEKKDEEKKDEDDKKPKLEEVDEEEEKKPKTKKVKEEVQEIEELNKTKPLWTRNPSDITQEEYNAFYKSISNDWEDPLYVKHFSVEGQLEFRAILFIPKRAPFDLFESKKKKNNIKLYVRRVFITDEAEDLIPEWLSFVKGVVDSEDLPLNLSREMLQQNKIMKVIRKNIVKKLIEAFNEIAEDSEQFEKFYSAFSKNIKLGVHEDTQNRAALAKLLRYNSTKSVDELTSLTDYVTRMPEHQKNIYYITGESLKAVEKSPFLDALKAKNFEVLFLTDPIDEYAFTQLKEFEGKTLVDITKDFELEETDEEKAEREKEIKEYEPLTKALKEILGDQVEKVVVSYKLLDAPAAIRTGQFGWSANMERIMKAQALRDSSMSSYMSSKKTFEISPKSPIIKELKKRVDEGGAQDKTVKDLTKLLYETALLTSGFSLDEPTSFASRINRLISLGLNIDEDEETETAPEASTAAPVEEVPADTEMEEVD

Compound	IC50 [1] [nM]	IC50 [2] [nM]
Cc1nn(-c2ccc(C(N)=O)c(NC3CC(C)(C)N(C)C(C)(C)C3)c2)c2cccc(-c3cnc4ccccc4c3)c12 [Example 15, 4-(3-methyl-4-quinolin-3-ylindazol-1-yl)-2-(1,2,2,6,6-pentamethylpiperidin-4-ylamino)benzamide]	1000 to 10000	< 1000
NC(=O)c1ccc(-n2nc(C(F)(F)F)c3c(-c4nc5ccc(F)cc5[nH]4)cccc32)cc1N[C@H]1CC[C@H](O)CC1 [Example 22, 4-[4-(6-fluoro-1H-benzimidazol-2-yl)-3-trifluoromethylindazol-1-yl]-2-(trans-4-hydroxycyclohexylamino)benzamide]		1000 to 10000
Cc1nn(-c2ccc(C(N)=O)c(NC3CC(C)(C)NC(C)(C)C3)c2)c2cccc(-c3cnc4ccccc4c3)c12 [Example 6, 4-(3-methyl-4-quinolin-3-ylindazol-1-yl)-2-(2,2,6,6-tetramethylpiperidin-4-ylamino)benzamide]	< 1000	< 1000
Cc1nn(-c2cnc(C(N)=O)c(NCCc3ccccn3)c2)c2cccc(-c3cnc4ccccc4c3)c12 [Example 18, 5-[3-methyl-4-quinolin-3-ylindazol-1-yl]-3-[2-pyridin-2-ylethylamino]pyridine-2-carboxamide]	< 1000	1000 to 10000
Cc1nn(-c2cnc(C(N)=O)c(NC3CC(C)(C)N(C)C(C)(C)C3)c2)c2cccc(-c3cnc4ccccc4c3)c12 [Example 17]		< 1000
Cc1nn(-c2cnc(C(N)=O)c(NC3CCOCC3)c2)c2cccc(-c3cnc4ccccc4c3)c12 [Example 10, 5-(3-methyl-4-quinolin-3-ylindazol-1-yl)-3-(tetrahydro-pyran-4-ylamino)pyridine-2-carboxamide]	< 1000	< 1000
NC(=O)c1ccc(-n2nc(C(F)(F)F)c3c(-c4cnc5ccccc5c4)cccc32)cc1N[C@H]1CC[C@H](O)CC1 [Example 21, 2-(trans-4-hydroxycyclohexylamino)-4-(4-quinolin-3-trifluoromethylindazol-1-yl)benzamide]		< 1000
NC(=O)c1ccc(-n2ncc3c(-c4cnc5ccccc5c4)cccc32)cc1 [Example 25, 4-(4-quinolin-3-ylindazol-1-yl)benzamide]		10000 to 100000
NC(=O)c1ncc(-n2nc(C(F)(F)F)c3c(-c4cnc5ccccc5c4)cccc32)cc1N[C@H]1CC[C@H](O)CC1 [Example 23, 3-(trans-4-hydroxycyclohexylamino)-5-(4-quinolin-3-yl-3-trifluoromethylindazol-1-yl)pyridine-2-carboxamide]		< 1000
Cc1nn(-c2cnc(C(N)=O)c(NCC(C)(C)O)c2)c2cccc(-c3cnc4ccccc4c3)c12 [Example 9, 3-(2-hydroxy-2-methylpropylamino)-5-(3-methyl-4-quinolin-3-ylindazol-1-yl)pyridine-2-carboxamide]		< 1000
NC(=O)c1ccc(-n2ncc3c(-c4cnc5ccccc5c4)cccc32)cc1N[C@H]1CC[C@H](O)CC1 [Example 24, 2-(trans-4-hydroxycyclohexylamino)-4-(4-quinolin-3-ylindazol-1-yl)benzamide]		< 1000
Cc1nn(-c2ccc(C(N)=O)c(NCC(C)(C)O)c2)c2cccc(-c3nc4ccc(F)cc4[nH]3)c12 [Example 13, 4-[4-(6-fluoro-1H-benzimidazol-2-yl)-3-methylindazol-1-yl]-2-(2-hydroxy-2-methylpropylamino)benzamide]		< 1000
Cc1nn(-c2ccc(C(N)=O)c(N[C@H]3CC[C@H](O)CC3)c2)c2cccc(-c3cnc4ccccc4c3)c12 [Example 1, 2-(trans-4-hydroxycyclohexylamino)-4-(3-methyl-4-quinolin-3-ylindazol-1-yl)benzamide]	< 1000	< 1000
Cc1nn(-c2cnc(C(N)=O)c(N[C@H]3CC[C@H](O)CC3)c2)c2cccc(-c3cnc4ccccc4c3)c12 [Example 16, 3-(trans-4-hydroxycyclohexylamino)-5-(3-methyl-4-quinolin-3-ylindazol-1-yl)pyridine-2-carboxamide]		< 1000
CC(C)(O)CNc1cc(-n2nc(Br)c3c(-c4cnc5ccccc5c4)cccc32)cnc1C(N)=O [Example 27, 5-(3-bromo-4-quinolin-3-ylindazol-1-yl)-3-(2-hydroxy-2-methylpropylamino)pyridine-2-carboxamide]		< 1000
Cc1nn(-c2ccc(C(N)=O)c(N[C@H]3CC[C@H](OC(=O)CN)CC3)c2)c2cccc(-c3cnc4ccccc4c3)c12 [Example 11, aminoacetic acid trans-4-[2-carbamoyl-5-(3-methyl-4-quinolin-3-ylindazol-1-yl)phenylamino]cyclohexyl ester]	< 1000	< 1000
NC(=O)c1ncc(-n2nc(Cl)c3c(-c4cnc5ccccc5c4)cccc32)cc1N[C@H]1CC[C@H](O)CC1 [Example 26, 5-(3-chloro-4-quinolin-3-ylindazol-1-yl)-3-(trans-4-hydroxycyclohexylamino)pyridine-2-carboxamide]		< 1000

Other lines, results leading:

IC50 [1] [nM]	IC50 [2] [nM]	Compound
< 1000	< 1000	Cc1nn(-c2ccc(C(N)=O)c(NCC(C)(C)O)c2)c2cccc(-c3cnc4ccccc4c3)c12 [Example 5, 2-(2-hydroxy-2-methylpropylamino)-4-(3-methyl-4-quinolin-3-ylindazol-1-yl)benzamide]
	< 1000	Cc1nn(-c2ccc(C(N)=O)c(NCCC3(O)CCN(C)CC3)c2)c2cccc(-c3cnc4ccccc4c3)c12 [Example 4, 2-[2-(4-hydroxy-1-methylpiperidin-4-yl)ethylamino]-4-(3-methyl-4-quinolin-3-ylindazol-1-yl)benzamide]
	< 1000	Cc1nn(-c2ccc(C(N)=O)c(NC[C@@H]3C[C@@H]4CC[C@H]3O4)c2)c2cccc(-c3cnc4ccccc4c3)c12 (single isomer, unassigned) [Example 20, 4-(3-methyl-4-quinolin-3-ylindazol-1-yl)-2-{[endo-1-(7-oxabicyclo[2.2.1]hept-2-yl)methyl]amino}benzamide]
	< 1000	Cc1nn(-c2ccc(C(N)=O)c(NCCF)c2)c2cccc(-c3cnc4ccccc4c3)c12 [Example 8, 2-(2-fluoroethylamino)-4-(3-methyl-4-quinolin-3-ylindazol-1-yl)benzamide]
< 1000	< 1000	Cc1nn(-c2ccc(C(N)=O)c(NCCCO)c2)c2cccc(-c3cnc4ccccc4c3)c12 [Example 3, 2-(3-hydroxypropylamino)-4-(3-methyl-4-quinolin-3-ylindazol-1-yl)benzamide]
< 1000	< 1000	Cc1nn(-c2ccc(C(N)=O)c(NC3CCOCC3)c2)c2cccc(-c3cnc4ccccc4c3)c12 [Example 7, 4-(3-methyl-4-quinolin-3-ylindazol-1-yl)-2-(tetrahydropyran-4-ylamino)benzamide]
1000 to 10000	10000 to 100000	Cc1nn(-c2ccc(C(N)=O)cc2)c2cccc(-c3cnc4ccccc4c3)c12 [Example 2, 4-(3-methyl-4-quinolin-3-ylindazol-1-yl)benzamide]
	< 1000	Cc1nn(-c2ccc(C(N)=O)c(NC[C@H]3C[C@@H]4CC[C@H]3O4)c2)c2cccc(-c3cnc4ccccc4c3)c12 (single isomer, unassigned) [Example 19, 4-(3-methyl-4-quinolin-3-ylindazol-1-yl)-2-{[exo-1-(7-oxabicyclo[2.2.1]hept-2-yl)methyl]amino}benzamide]

— patent US20120010241A1, “HSP90 INHIBITING INDAZOLE DERIVATIVES, COMPOSITIONS CONTAINING SAME AND USE THEREOF” (SANOFI, priority 2009, published 2012)
